Source: US4141972A, “Purine nucleoside 5'-phosphate (mono, di or tri) 3'(2')-diphosphates and processes for their preparation” (priority 1974, dated 1979)
Each block holds one molecule with its values, some of them ahead of it.

Experiments:
[1] = system: nucleotide pyrophosphotransferase, enzymes obtained from the six actinomycetes (Streptomyces adephospholyticus A4668 ATCC 31122, St. aspergilloides ATCC 14808 …); test: Inhibitory action of nucleosides, nucleotides, bases and general enzyme inhibitors on nucleotide pyrophosphotransferase; type: biochemical
Experimental: (1) Inorganic phosphate determination by a modification of Nakamura's method: The standard reaction mixture contained 0.25 M glycine-NaOH buffer (pH 10.0), 0.2 ml.; 0.05 M MgCl2, 0.05 ml.; 0.05 M ATP, 0.05 ml.; the enzyme solution (to be diluted by buffer if necessary), 0.1 ml.; and distilled water, 0.1 ml. in a final volume of 0.5 ml. After incubation at 37° C. for 10 minutes, the reaction was terminated by adding 0.5 ml. of 0.2 N acetic acid, and chilling on ice. Immediately, 3 ml. of developing reagent (amidol-molybdate) was added and the mixture was allowed to stand for 10 minutes at 37° C. The optical density was measured at 750 nm and the moles of Pi released were calculated using the standard curve for Pi.
The reaction mixture contained 20 mM adenosine-8-3H-triphosphate (2 mCi/m mole), 5 mM MgCl2, 62.5 mM glycine-NaOH buffer (pH 10.0) and 0.1 ml. of enzyme solution to give a total volume of 0.2 ml. The mixture was incubated at 37° C. for 10 minutes and the incubation was terminated by addition of 0.01 ml. of 1 N acetic acid. Twenty microliters of the reaction mixture were spotted on a polyethyleneimine (PEI) cellulose F thin layer sheet (E. Merck AG), dried and developed in 0.75 M KH2 PO4, pH 3.4, for two hours at room temperature. After chromatography the sheets were dried and exposed to ultraviolet light provided by a Manasul UV lamp to localize the pppApp and AMP formed. The spots on the chromatograms corresponding to pppApp and AMP were cut out and placed in a scintillation vial containing 0.5 ml. of 0.1 N HCl. Vials were boiled for 15 minutes to elute nucleotides adsorbed on the PEI-cellulose and radioactivity was measured by 10 ml. of BRAY Solution in a liquid scintillation counter. A unit of enzyme activity is defined as the amount of enzyme forming 1μ mole of pppApp or AMP per minute under the above condition.
Inhibitory actions of 40 substances which are general enzyme inhibitors such as nucleosides, nucleotides and their bases were examined for their effect on the enzymes obtained from the six actinomycetes.

[2] = system: L1210 cells; test: Effect of nucleotides on the life span of mice inoculated with L1210 cells; type: in vivo; settings: for 30 days survivors / MST (mean survival time) / T/C: L1210, mice
Source text: The characteristic of the said nucleotide pyrophosphotransferase is that it inhibits the growth of Hela S3, L1210 and L5178Y cells in culture at a relatively low concentration, 5 to 10 units/ml. […] The nucleotide or enzyme is combined with a conventional pharmaceutically acceptable nontoxic carrier for intraperitoneal administration.
Tumor: L1210, Sloan-Kettering line, 10^5 cells/head, i.p.
MST: Mean survival time

[3] = other nucleic acids, concentration not given
[4] = 10 mM each, non-substrate nucleic acids
[5] = 5 mg/kg.day i.p. once daily for 10 days
[6] = 10 mg/kg.day i.p. once daily for 10 days
[7] = 20 mg/kg.day i.p. once daily for 10 days
[8] = BDF1 mice, L1210 i.p., i.p. once daily for 10 days

Inhibition of enzyme activity [1, 3]: not inhibitory
Compound: O=c1cc[nH]c(=O)[nH]1 [uracil]

Compound: O=c1ccn([C@@H]2O[C@H](CO)[C@@H](O)[C@H]2O)c(=O)[nH]1 [uridine]
Inhibition of enzyme activity [1, 3]: not inhibitory

Inhibition of enzyme activity [1, 4]: marked inhibition
Compound: Nc1nc2c(ncn2[C@@H]2O[C@H](CO)[C@@H](O)[C@H]2O)c(=O)[nH]1 [guanosine]

Inhibition of enzyme activity [1, 3]: not inhibitory
Compound: O=c1[nH]cnc2nc[nH]c12 [hypoxanthine]

Inhibition of enzyme activity [1, 3]: not inhibitory
Compound: NC(=O)c1ccc[n+]([C@@H]2O[C@H](COP(=O)([O-])OP(=O)(O)OC[C@H]3O[C@@H](n4cnc5c(N)ncnc54)[C@H](O)[C@@H]3O)[C@@H](O)[C@H]2O)c1 [NAD]

Compound: Nc1nc2nc[nH]c2c(=O)[nH]1 [guanine]
Inhibition of enzyme activity [1, 4]: marked inhibition

Inhibition of enzyme activity [1, 4]: marked inhibition
Compound: Nc1nc2c(ncn2[C@H]2C[C@H](O)[C@@H](COP(=O)(O)OP(=O)(O)O)O2)c(=O)[nH]1 [d-GDP]

Inhibition of enzyme activity [1, 3]: not inhibitory
Compound: Nc1ccn([C@@H]2O[C@H](COP(=O)(O)O)[C@@H](O)[C@H]2O)c(=O)n1 [CMP]

Compound: Nc1ncnc2c1ncn2[C@@H]1O[C@H](COP(=O)(O)OP(=O)(O)OP(=O)(O)O)[C@@H](OP(=O)(O)OP(=O)(O)O)[C@H]1O [pppApp 7Li, adenosine 5'-triphosphate 3' (2')-diphosphate]
30 days survivors [2, 5]: 1/5
MST (mean survival time) [2, 5]: 14.0 days
T/C [2, 5]: 157%
30 days survivors [2, 6]: 1/5
MST (mean survival time) [2, 6]: 12.5 days
T/C [2, 6]: 140%
30 days survivors [2, 7]: 2/5
MST (mean survival time) [2, 7]: 16.8 days
T/C [2, 7]: 189%
Accumulation of abdominal dropsy [2, 8]: distinctly suppressed
Effect on lifespan of tumor-bearing mice [2, 8]: prolonged the lifespan
Toxicity to the mice [2, 8]: without causing toxicity

Inhibition of enzyme activity [1, 3]: not inhibitory
Compound: Nc1ncnc2nc[nH]c12 [adenine]

Inhibition of enzyme activity [1, 3]: not inhibitory
Compound: OC[C@H]1O[C@@H](n2cnc3c(O)ncnc32)[C@H](O)[C@@H]1O [inosine]

Compound: Nc1ncnc2c1ncn2[C@@H]1O[C@H](CO)[C@@H](O)[C@H]1O [adenosine]
Inhibition of enzyme activity [1, 3]: not inhibitory

Compound: Nc1ccn([C@@H]2O[C@H](CO)[C@@H](O)[C@H]2O)c(=O)n1 [cytidine]
Inhibition of enzyme activity [1, 3]: not inhibitory

Compound: O=c1[nH]c(=O)c2[nH]cnc2[nH]1 [xanthine]
Inhibition of enzyme activity [1, 3]: not inhibitory

Inhibition of enzyme activity [1, 4]: marked inhibition
Compound: Nc1nc2c(ncn2[C@H]2C[C@H](O)[C@@H](COP(=O)(O)OP(=O)(O)OP(=O)(O)O)O2)c(=O)[nH]1 [d-GTP]

Compound: Nc1ncnc2c1ncn2[C@@H]1O[C@H](COP(=O)(O)OP(=O)(O)OP(=O)(O)O)[C@@H](O)[C@H]1O [ATP 2Na]
30 days survivors [2, 5]: 0/5
MST (mean survival time) [2, 5]: 8.7 days
T/C [2, 5]: 98%
30 days survivors [2, 6]: 0/5
MST (mean survival time) [2, 6]: 9.2 days
T/C [2, 6]: 103%
30 days survivors [2, 7]: 0/5
MST (mean survival time) [2, 7]: 8.6 days
T/C [2, 7]: 97%
Effect on lifespan of tumor-bearing mice [2, 8]: not effective

Inhibition of enzyme activity [1, 3]: not inhibitory
Compound: Nc1cc[nH]c(=O)n1 [cytosine]
